34 compounds from patent publication US10590078B2, “Sodium channel blockers” (Daewoong Pharmaceutical Co., Ltd., priority 2015, dated 2020) can be followed below.

pIC50: −log10 of the molar value.

Sequence of human sodium ion channel 1.7 (hNav1.7) (Q15858 whole entry): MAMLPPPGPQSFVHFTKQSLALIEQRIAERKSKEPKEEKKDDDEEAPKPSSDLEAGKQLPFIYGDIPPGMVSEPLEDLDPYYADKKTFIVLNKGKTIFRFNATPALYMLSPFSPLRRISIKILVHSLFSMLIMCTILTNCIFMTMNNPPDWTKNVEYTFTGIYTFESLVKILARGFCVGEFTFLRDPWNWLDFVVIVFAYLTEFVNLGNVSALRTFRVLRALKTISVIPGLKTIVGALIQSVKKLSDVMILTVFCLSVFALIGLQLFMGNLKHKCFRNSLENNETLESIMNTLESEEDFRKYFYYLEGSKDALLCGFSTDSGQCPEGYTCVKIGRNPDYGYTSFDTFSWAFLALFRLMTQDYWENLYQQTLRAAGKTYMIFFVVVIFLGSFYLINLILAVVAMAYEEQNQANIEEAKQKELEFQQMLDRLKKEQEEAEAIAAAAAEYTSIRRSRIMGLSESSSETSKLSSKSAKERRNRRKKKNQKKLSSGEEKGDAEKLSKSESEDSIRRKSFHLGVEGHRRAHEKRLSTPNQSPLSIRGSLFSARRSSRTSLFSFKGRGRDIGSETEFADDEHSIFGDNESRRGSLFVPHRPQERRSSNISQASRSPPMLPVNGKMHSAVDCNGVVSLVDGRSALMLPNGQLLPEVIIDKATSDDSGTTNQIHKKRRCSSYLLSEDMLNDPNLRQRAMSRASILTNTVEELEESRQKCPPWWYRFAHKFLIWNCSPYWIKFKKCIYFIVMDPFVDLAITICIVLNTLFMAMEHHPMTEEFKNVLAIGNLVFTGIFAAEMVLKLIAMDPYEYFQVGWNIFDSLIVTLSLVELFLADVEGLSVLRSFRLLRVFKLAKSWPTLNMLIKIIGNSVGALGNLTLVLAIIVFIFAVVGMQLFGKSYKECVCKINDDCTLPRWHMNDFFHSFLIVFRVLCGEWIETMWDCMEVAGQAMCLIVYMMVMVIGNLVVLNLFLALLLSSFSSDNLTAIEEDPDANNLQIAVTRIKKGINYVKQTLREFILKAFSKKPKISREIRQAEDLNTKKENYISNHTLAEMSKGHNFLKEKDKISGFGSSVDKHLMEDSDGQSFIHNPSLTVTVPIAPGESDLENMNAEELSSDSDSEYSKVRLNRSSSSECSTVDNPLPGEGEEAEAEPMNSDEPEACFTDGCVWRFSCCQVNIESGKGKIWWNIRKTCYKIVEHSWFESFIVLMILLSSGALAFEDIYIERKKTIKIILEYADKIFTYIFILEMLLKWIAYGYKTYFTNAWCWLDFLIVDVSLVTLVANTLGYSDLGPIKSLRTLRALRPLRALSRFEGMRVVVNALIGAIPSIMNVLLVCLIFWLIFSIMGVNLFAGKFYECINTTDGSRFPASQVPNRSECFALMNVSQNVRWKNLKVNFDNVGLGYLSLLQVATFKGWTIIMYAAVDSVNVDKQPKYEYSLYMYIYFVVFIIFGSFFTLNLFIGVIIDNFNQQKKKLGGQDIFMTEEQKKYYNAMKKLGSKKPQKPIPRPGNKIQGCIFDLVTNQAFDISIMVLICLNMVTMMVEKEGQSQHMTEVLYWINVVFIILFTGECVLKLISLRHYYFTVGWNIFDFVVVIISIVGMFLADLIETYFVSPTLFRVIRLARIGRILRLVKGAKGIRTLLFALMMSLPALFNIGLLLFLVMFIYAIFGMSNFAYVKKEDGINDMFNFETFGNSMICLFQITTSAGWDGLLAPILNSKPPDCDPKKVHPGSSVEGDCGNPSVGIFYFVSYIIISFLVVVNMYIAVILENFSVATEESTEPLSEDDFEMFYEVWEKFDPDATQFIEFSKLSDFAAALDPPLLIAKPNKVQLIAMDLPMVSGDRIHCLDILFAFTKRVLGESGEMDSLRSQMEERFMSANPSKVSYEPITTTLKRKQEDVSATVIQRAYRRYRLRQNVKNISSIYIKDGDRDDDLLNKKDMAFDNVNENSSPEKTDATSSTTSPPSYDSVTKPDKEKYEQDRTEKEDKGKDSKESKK

The assay addresses human sodium ion channel 1.7 (hNav1.7) (Homo sapiens, UniProt Q15858). Kind of assay: Blocking effect against sodium ion channel Nav1.7, IonFlux16 auto patch clamp in hNav1.7 HEK293 cells. To be noted: hNav1.7 HEK293 cells; inhibition of peak current after 50 seconds treatment; eight concentrations; read-out: IC50. In kind it is cell-based. Background: The patch-clamp technique gives a direct electrical read-out from membranes.
As a reminder, the pIC50 is −log10 of the IC50, conventionally taken in molar units. With `CS(=O)(=O)NC(=O)c1cc(Cl)c(-n2nc(Cl)c3cc(O)ccc32)cc1F` [Example 16, 5-chloro-4-(3-chloro-5-hydroxy-1H-indazol-1-yl)-2-fluoro-N-(methylsulfonyl)benzamide], the negative logarithm of the IC50 (pIC50) is under 5.00.
Consider `CS(=O)(=O)NC(=O)c1cc(Cl)c(-n2nc(Cl)c3cc(OCc4ccc5ccccc5c4)ccc32)cc1F` [Example 35, 5-chloro-4-(3-chloro-5-(naphthalen-2-ylmethoxy)-1H-indazol-1-yl)-2-fluoro-N-(methylsulfonyl)benzamide], for which the negative-log IC50 (pIC50) is 7.12.
For the compound `N#Cc1cc(Cl)c(-n2nc(-c3ccc(Cl)cc3F)c3cc(Cl)ccc32)cc1F` [Example 288, 5-chloro-4-(5-chloro-3-(4-chloro-2-fluorophenyl)-1H-indazol-1-yl)-2-fluorobenzonitrile], the negative-log IC50 (pIC50) is under 5.00.
Consider `CS(=O)(=O)NC(=O)c1cc(Cl)c(-n2nc(Cl)c3cc(-c4ccccc4C(F)(F)F)ccc32)cc1F` [Example 250, 5-chloro-4-(3-chloro-5-(2-(trifluoromethyl)phenyl)-1H-indazol-1-yl)-2-fluoro-N-(methylsulfonyl)benzamide], for which the negative logarithm of the IC50 (pIC50) is 7.17.
Take `CS(=O)(=O)NC(=O)c1ccc(-n2nc(-c3cccnc3)c3cc(F)ccc32)c(C#N)c1` [Example 167, 3-cyano-4-(5-fluoro-3-(pyridin-3-yl)-1H-indazol-1-yl)-N-(methylsulfonyl)benzamide]: the negative logarithm of the IC50 (pIC50) was under 5.00.
In the case of `CS(=O)(=O)NC(=O)c1ccc(-n2nc(-c3ccc(C#N)cc3)c3cc(Cl)ccc32)c(F)c1` [Example 120, 4-(5-chloro-3-(4-cyanophenyl)-1H-indazol-1-yl)-3-fluoro-N-(methylsulfonyl)benzamide] it was 5.41.
The same measure for `CS(=O)(=O)NC(=O)c1ccc(-n2nc(-c3ccccc3F)c3cc(Cl)ccc32)c(C#N)c1` [Example 102, 4-(5-chloro-3-(2-fluorophenyl)-1H-indazol-1-yl)-3-cyano-N-(methylsulfonyl)benzamide]: 5.92; for `CS(=O)(=O)NC(=O)c1cc(Cl)c(-n2cc(-c3ccc(F)cc3F)c3cccnc32)cc1F` [Example 229, 5-chloro-4-(3-(2,4-difluorophenyl)-1H-pyrrolo[2,3-b]pyridin-1-yl)-2-fluoro-N-(methylsulfonyl)benzamide]: 6.74.
In the case of `CS(=O)(=O)NC(=O)c1cc(Cl)c(-n2nc(-c3cccc(C#N)c3)c3cc(Cl)ccc32)cc1F` [Example 61, 5-chloro-4-(5-chloro-3-(3-cyanophenyl)-1H-indazol-1-yl)-2-fluoro-N-(methylsulfonyl)benzamide], the negative logarithm of the IC50 (pIC50) is 7.02.
In the case of `O=S(=O)(Nc1cscn1)c1cc(F)c(-n2nc(Cl)c3cc(C(F)(F)F)ccc32)cc1F` [Example 279, 4-(3-chloro-5-(trifluoromethyl)-1H-indazol-1-yl)-2,5-difluoro-N-(thiazol-4-yl)benzenesulfonamide], the pIC50 is under 5.00.
In the case of `CS(=O)(=O)NC(=O)c1cc(Cl)c(-n2ncc3cc(N)ccc32)cc1F` [Example 13, 4-(5-amino-1H-indazol-1-yl)-5-chloro-2-fluoro-N-(methylsulfonyl)benzamide] it was under 5.00; in that of `COc1cccc(-c2nn(-c3cc(F)c(C(=O)NS(C)(=O)=O)cc3Cl)c3ccc(F)cc23)c1` [Example 151, 5-chloro-2-fluoro-4-(5-fluoro-3-(3-methoxyphenyl)-1H-indazol-1-yl)-N-(methylsulfonyl)benzamide], 7.10.
The same measure for `CS(=O)(=O)NC(=O)c1cc(Cl)c(-n2nc(-c3ccccc3)c3cc(C4CC4)ccc32)cc1F` [Example 26, 5-chloro-4-(5-cyclopropyl-3-phenyl-1H-indazol-1-yl)-2-fluoro-N-(methylsulfonyl)benzamide]: 7.00.
With `O=C(Nc1nccs1)c1cc(Cl)c(-n2nc(-c3ccc(Cl)cc3F)c3cc(Cl)ccc32)cc1F` [Example 294, 5-chloro-4-(5-chloro-3-(4-chloro-2-fluorophenyl)-1H-indazol-1-yl)-2-fluoro-N-(thiazol-2-yl)benzamide], the negative logarithm of the IC50 (pIC50) is under 5.00.
Consider `CS(=O)(=O)NC(=O)c1cc(Cl)c(-n2cc(-c3ccc(F)cc3)c3cc(Cl)cnc32)cc1F` [Example 185, 5-chloro-4-(5-chloro-3-(4-fluorophenyl)-1H-pyrrolo[2,3-b]pyridin-1-yl)-2-fluoro-N-(methylsulfonyl)benzamide], for which the pIC50 is 7.10.
Consider `CS(=O)(=O)NC(=O)c1cc(Cl)c(-n2nc(Cl)c3cc(OCc4ccc(F)cc4)ccc32)cc1F` [Example 36, 5-chloro-4-(3-chloro-5-((4-fluorobenzyl)oxy)-1H-indazol-1-yl)-2-fluoro-N-(methylsulfonyl)benzamide], for which the negative-log IC50 (pIC50) is 7.06.
The same measure for `CS(=O)(=O)NC(=O)c1cc(Cl)c(-n2nc(Cl)c3cc(-c4ccccc4C#N)ccc32)cc1F` [Example 237, 5-chloro-4-(3-chloro-5-(2-cyanophenyl)-1H-indazol-1-yl)-2-fluoro-N-(methylsulfonyl)benzamide]: under 5.00; for `CS(=O)(=O)NC(=O)c1cc(Cl)c(-n2cc(-c3ccc(F)cc3Cl)c3cc(Cl)cnc32)cc1F` [Example 197, 5-chloro-4-(5-chloro-3-(2-chloro-4-fluorophenyl)-1H-pyrrolo[2,3-b]pyridin-1-yl)-2-fluoro-N-(methylsulfonyl)benzamide]: 7.40.
The same measure for `CS(=O)(=O)NC(=O)c1cc(Cl)c(-n2nc(-c3cccc(Cl)c3F)c3cc(F)ccc32)cc1F` [Example 163, 5-chloro-4-(3-(3-chloro-2-fluorophenyl)-5-fluoro-1H-indazol-1-yl)-2-fluoro-N-(methylsulfonyl)benzamide]: 6.92; for `CS(=O)(=O)NC(=O)c1cc(Cl)c(-n2nc(-c3ccc(Cl)cc3)c3cc(C4CC4)ccc32)cc1F` [Example 85, 5-chloro-4-(3-(4-chlorophenyl)-5-cyclopropyl-1H-indazol-1-yl)-2-fluoro-N-(methylsulfonyl)benzamide]: 6.22.
Take `CS(=O)(=O)NC(=O)c1cc(Cl)c(-n2nc(-c3ccc(F)c(F)c3)c3cc(Cl)ccc32)cc1F` [Example 75, 5-chloro-4-(5-chloro-3-(3,4-difluorophenyl)-1H-indazol-1-yl)-2-fluoro-N-(methylsulfonyl)benzamide]: the negative logarithm of the IC50 (pIC50) is 6.74.
Turning to `CS(=O)(=O)NC(=O)c1cc(Cl)c(-n2nc(-c3ccc(F)cc3F)c3cc(Cl)ccc32)cc1F` [Example 56, 5-chloro-4-(5-chloro-3-(2,4-difluorophenyl)-1H-indazol-1-yl)-2-fluoro-N-(methylsulfonyl)benzamide], the pIC50 was 7.40.
Take `CS(=O)(=O)NC(=O)c1cc(Cl)c(-n2cc(-c3cccc(C(F)(F)F)c3)c3cccnc32)cc1F` [Example 217, 5-chloro-2-fluoro-N-(methylsulfonyl)-4-(3-(3-(trifluoromethyl)phenyl)-1H-pyrrolo[2,3-b]pyridin-1-yl)benzamide]: the pIC50 was 6.28.
The same measure for `CS(=O)(=O)NC(=O)c1cc(Cl)c(-n2cc(Cl)c3cc(Cl)ccc32)cc1F` [Example 266, 5-chloro-4-(3,5-dichloro-1H-indol-1-yl)-2-fluoro-N-(methylsulfonyl)benzamide]: 6.88.
The same measure for `COc1ccc2c(c1)c(-c1ccc(Cl)cc1F)nn2-c1cc(F)c(C(=O)NS(C)(=O)=O)cc1Cl` [Example 169, 5-chloro-4-(3-(4-chloro-2-fluorophenyl)-5-methoxy-1H-indazol-1-yl)-2-fluoro-N-(methylsulfonyl)benzamide]: 6.74; for `CS(=O)(=O)NC(=O)c1cc(Cl)c(-n2nc(-c3ccc(F)cc3)c3ccccc32)cc1F` [Example 179, 5-chloro-2-fluoro-4-(3-(4-fluorophenyl)-1H-indazol-1-yl)-N-(methylsulfonyl)benzamide]: 6.41; for `CS(=O)(=O)NC(=O)c1cc(Cl)c(-n2nc(Cl)c3cc(-c4ccc(Cl)cc4F)ccc32)cc1F` [Example 247, 5-chloro-4-(3-chloro-5-(4-chloro-2-fluorophenyl)-1H-indazol-1-yl)-2-fluoro-N-(methylsulfonyl)benzamide]: 6.52.
As for `CS(=O)(=O)NC(=O)c1cc(Cl)c(-n2nc(Cl)c3cc(-c4ccccc4F)ccc32)cc1F` [Example 234, 5-chloro-4-(3-chloro-5-(2-fluorophenyl)-1H-indazol-1-yl)-2-fluoro-N-(methylsulfonyl)benzamide], the pIC50 was 6.95.
In the case of `Cn1nccc1-c1ccc2c(c1)c(Cl)nn2-c1cc(F)c(S(=O)(=O)Nc2cscn2)cc1Cl` [Example 286, 5-chloro-4-(3-chloro-5-(1-methyl-1H-pyrazol-5-yl)-1H-indazol-1-yl)-2-fluoro-N-(thiazol-4-yl)benzenesulfonamide] it was 5.00 to 5.52; in that of `CS(=O)(=O)NC(=O)c1cc(Cl)c(-n2nc(Cl)c3cc(-c4ccc(F)cc4F)ccc32)cc1F` [Example 243, 5-chloro-4-(3-chloro-5-(2,4-difluorophenyl)-1H-indazol-1-yl)-2-fluoro-N-(methylsulfonyl)benzamide], 6.76.
In the case of `CS(=O)(=O)NC(=O)c1cc(Cl)c(-n2nc(-c3ccc(F)cc3Cl)c3cc(Cl)ccc32)cc1F` [Example 74, 5-chloro-4-(5-chloro-3-(2-chloro-4-fluorophenyl)-1H-indazol-1-yl)-2-fluoro-N-(methylsulfonyl)benzamide] it was 7.70; in that of `CS(=O)(=O)NC(=O)c1ccc(-n2nc(-c3ccccc3)c3cc(Cl)ccc32)cc1F` [Example 127, 4-(5-chloro-3-phenyl-1H-indazol-1-yl)-2-fluoro-N-(methylsulfonyl)benzamide], 5.41.
Turning to `CS(=O)(=O)NC(=O)c1cc(Cl)c(-n2cc(-c3ccc(F)cc3)c3cccnc32)cc1F` [Example 226, 5-chloro-2-fluoro-4-(3-(4-fluorophenyl)-1H-pyrrolo[2,3-b]pyridin-1-yl)-N-(methylsulfonyl)benzamide], the pIC50 was 6.40.
For `CS(=O)(=O)NC(=O)c1cc(Cl)c(-n2cc(Cl)c3c(OCc4ccccc4)cccc32)cc1F` [Example 270, 4-(4-(benzyloxy)-3-chloro-1H-indol-1-yl)-5-chloro-2-fluoro-N-(methylsulfonyl)benzamide], the negative-log IC50 (pIC50) was 6.73.
